Measured values reported in article PMC2364952, “The Anti-Inflammatory Activity of Boron Derivatives in Rodents” (Metal-Based Drugs, 1995).

Tests used:
[1] = test system: acetic acid induced stretch reflex; assay: Local analgesic screen (acetic acid writhing); assay type: in vivo, CF1 mice; settings: for Mice Writhing Reflex: 8 mg/kg I.P., Table 2; for reduction of the reflex action: mice, acetic acid induced local pain, 8 mg/kg
acid phosphatase = assay: Acid phosphatase activity, mouse macrophages; assay type: cell-based, mouse (J774 macrophages); settings: Table 3; read-out: IC50 Acid Phosphatase, Mouse Macrophage
cathepsin = assay: Cathepsin activity, mouse macrophages; assay type: cell-based, mouse (J774 macrophages); settings: Table 3; read-out: IC50 Cathepsin, Mouse Macrophage
trypsin [2] = assay: Trypsin proteolytic activity, mouse macrophages; assay type: cell-based, mouse (J774 macrophages); settings: Table 5; read-out: IC50 Trypsin, Mouse Macrophage
elastase [3] = assay: Elastase activity, mouse macrophages; assay type: cell-based, mouse (J774 macrophages); settings: Table 5; read-out: IC50 Elastase, Mouse Macrophage
trypsin [4] = assay: Trypsin activity, UMR-106 osteosarcoma cells; assay type: cell-based; settings: Table 6; read-out: IC50 Trypsin, Rat UMR-106 Bone Osteosarcoma
neutral cathepsin = assay: Cathepsin activity, UMR-106 osteosarcoma cells; assay type: cell-based; settings: Table 6; read-out: IC50 Neutral Cathepsin, Rat UMR-106 Bone Osteosarcoma
elastase [5] = assay: Elastase activity, UMR-106 osteosarcoma cells; assay type: cell-based; settings: Table 6; read-out: IC50 Elastase, Rat UMR-106 Bone Osteosarcoma
[6] = molecular target: prostaglandin cyclooxygenase; assay: Prostaglandin cyclooxygenase activity, macrophages; assay type: cell-based, mouse (J774 macrophages); settings: Table 7
[7] = test system: carrageenan-induced inflammation of paw; assay: Carrageenan-induced paw edema, rats; assay type: in vivo, Sprague Dawley male rats; settings: for Rat Inflammatory: 8 mg/kg x 2, I.P., Table 2;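 for Rat Inflammatory: paw weight increase as percent of control rats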
[8] = test system: tail flick response to heat; assay: Hot plate tail flick screen; assay type: in vivo, CF1 male mice; settings: for Mice Tail Flick: 8 mg/kg I.P., hot plate, Table 2; for tail flick assay time: mice, 8 mg/kg
[9] = test system: carrageenan-induced pleural fluid; assay: Anti-pleurisy screen; assay type: in vivo, Sprague Dawley male rats; settings: for pleurisy edema in rats: 8 mg/kg; for Rat Pleurisy: rats, 8 mg/kg I.P., 1 h before and 3 h after carrageenan, Table 2;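 for Rat Pleurisy: Pleural fluid volume as percent of control rats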
[10] = test system: adjuvant (M. butyricum) arthritis; assay: Chronic adjuvant arthritic screen; assay type: in vivo; settings: rats; for Rat Chronic Arthritis: 8 mg/kg/day I.P., Day 3 to Day 21, Table 2
aryl sulphatase = assay: Aryl sulfatase activity, mouse macrophages; assay type: cell-based, mouse (J774 macrophages); settings: Table 3; read-out: IC50 Aryl Sulfatase, Mouse Macrophage
[11] = test system: carrageenan-induced inflammation of hind foot; assay: Carrageenan-induced foot edema, mice; assay type: in vivo, CF1 male mice; settings: mice; for reduction of induced edema: 8 mg/kg x 2, I.P., carrageenan
[12] = test system: prostaglandin cyclooxygenase; assay: Prostaglandin cyclooxygenase activity, Be Sal cells; assay type: cell-based, human (Be Sal osteofibrolytic cells); settings: Table 7; read-out: IC50 Prostaglandin Cyclooxygenase, Be Sal Osteofibro
[13] = molecular target: T1, prostaglandin cyclooxygenase (Bos taurus, UniProt O62664); assay: Prostaglandin synthetase from bovine seminal vesicles; assay type: biochemical; settings: Table 7; read-out: IC50 Prostaglandin Cyclooxygenase, Beef Seminal Vesicle
T1 construct: purified commercial prostaglandin synthetase from bovine seminal vesicles (Miles Research Products); purchased Miles Research Products; host or cells: bovine seminal vesicles (tissue preparation)
T1 sequence (O62664 25-600): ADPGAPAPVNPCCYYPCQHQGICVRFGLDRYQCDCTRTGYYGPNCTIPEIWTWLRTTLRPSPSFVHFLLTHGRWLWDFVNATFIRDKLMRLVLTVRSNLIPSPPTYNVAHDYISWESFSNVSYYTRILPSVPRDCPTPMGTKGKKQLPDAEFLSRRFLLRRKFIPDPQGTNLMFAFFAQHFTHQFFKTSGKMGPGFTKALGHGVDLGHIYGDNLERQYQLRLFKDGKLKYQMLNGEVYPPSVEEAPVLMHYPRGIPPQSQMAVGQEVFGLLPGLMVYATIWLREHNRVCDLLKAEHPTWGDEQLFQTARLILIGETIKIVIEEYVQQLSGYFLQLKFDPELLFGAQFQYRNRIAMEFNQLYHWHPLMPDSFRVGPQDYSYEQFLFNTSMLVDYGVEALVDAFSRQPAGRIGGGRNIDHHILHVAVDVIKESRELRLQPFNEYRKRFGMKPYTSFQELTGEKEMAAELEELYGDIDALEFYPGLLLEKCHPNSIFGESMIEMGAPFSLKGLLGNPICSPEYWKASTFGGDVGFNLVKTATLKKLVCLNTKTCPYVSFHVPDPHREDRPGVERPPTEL

5'-lipoxygenase [14] = molecular target: T2, 5'-lipoxygenase (Mus musculus, UniProt P48999); assay: 5'-Lipoxygenase activity, mouse macrophages; assay type: cell-based; settings: Table 7; read-out: IC50 5'-Lipoxygenase, Mouse Macrophage
T2 construct: endogenous in cells; host or cells: mouse macrophages (J774A as maintained above)
T2 sequence (P48999 1-674): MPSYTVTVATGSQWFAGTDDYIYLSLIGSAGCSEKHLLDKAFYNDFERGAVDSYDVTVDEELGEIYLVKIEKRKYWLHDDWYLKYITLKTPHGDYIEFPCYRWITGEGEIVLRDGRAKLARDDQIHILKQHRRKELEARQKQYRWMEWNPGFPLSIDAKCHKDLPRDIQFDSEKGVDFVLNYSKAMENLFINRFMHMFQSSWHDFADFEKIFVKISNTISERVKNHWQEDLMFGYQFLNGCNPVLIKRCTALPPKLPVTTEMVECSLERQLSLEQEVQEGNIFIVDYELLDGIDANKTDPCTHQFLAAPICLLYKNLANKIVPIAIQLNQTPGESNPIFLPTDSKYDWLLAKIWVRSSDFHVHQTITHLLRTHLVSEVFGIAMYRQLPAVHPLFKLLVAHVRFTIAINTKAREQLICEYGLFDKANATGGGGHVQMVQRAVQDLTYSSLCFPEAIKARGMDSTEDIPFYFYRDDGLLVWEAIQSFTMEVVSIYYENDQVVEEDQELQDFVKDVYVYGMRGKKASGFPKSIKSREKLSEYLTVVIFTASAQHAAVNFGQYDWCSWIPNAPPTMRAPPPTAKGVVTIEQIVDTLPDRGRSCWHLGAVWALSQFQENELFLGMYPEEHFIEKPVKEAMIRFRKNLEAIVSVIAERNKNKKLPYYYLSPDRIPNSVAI

5'-lipoxygenase [15] = molecular target: T3, 5'-lipoxygenase (Homo sapiens, UniProt P09917); assay: 5'-Lipoxygenase activity, human leukocytes; assay type: cell-based; settings: Table 7
T3 construct: endogenous in cells; host or cells: RMPI 1788 human leukocytes
T3 sequence (P09917 1-674): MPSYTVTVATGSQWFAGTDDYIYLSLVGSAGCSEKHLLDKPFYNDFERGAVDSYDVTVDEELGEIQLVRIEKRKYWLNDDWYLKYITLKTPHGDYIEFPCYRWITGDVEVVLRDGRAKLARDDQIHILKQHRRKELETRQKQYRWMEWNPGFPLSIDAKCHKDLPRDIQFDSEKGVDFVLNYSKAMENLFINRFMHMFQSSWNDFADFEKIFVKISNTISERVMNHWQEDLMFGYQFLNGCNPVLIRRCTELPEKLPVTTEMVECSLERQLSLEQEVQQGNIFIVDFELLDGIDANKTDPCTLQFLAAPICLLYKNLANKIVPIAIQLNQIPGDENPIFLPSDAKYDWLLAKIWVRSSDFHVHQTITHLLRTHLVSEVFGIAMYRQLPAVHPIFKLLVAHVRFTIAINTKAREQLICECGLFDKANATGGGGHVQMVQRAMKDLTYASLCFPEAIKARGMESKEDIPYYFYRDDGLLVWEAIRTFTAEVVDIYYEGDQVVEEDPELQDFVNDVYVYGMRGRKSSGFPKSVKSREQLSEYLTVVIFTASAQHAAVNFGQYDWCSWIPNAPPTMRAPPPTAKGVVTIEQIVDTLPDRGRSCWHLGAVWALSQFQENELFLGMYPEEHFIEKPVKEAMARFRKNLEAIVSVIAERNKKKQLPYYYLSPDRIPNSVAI

Row | Compound | Mice Writhing Reflex [1] | reduction of the reflex action [1] | IC50 (acid phosphatase) | IC50 (cathepsin) | IC50 (trypsin [2]) | IC50 (elastase [3]) | IC50 (trypsin [4]) | IC50 (neutral cathepsin) | IC50 (elastase [5]) | IC50 [6] | Rat Inflammatory [7] | Mice Tail Flick [8] | tail flick assay time [8] | Rat Pleurisy [9] | IC50 (aryl sulphatase) | IC50 [12] | further results
1 | [BH3-][NH2+]C(C)(C)C [Compound 1] | 19 % of control | 80% | 8.08 µM | 4.62 µM | 2.09 µM | 0.22 µM | 7.74 µM | 4.67 µM | 9.26 µM | 4.19 µM |  |  |  |  |  |  | 
2 | C[NH2+][BH2-]C(=O)O [Compound 2] | 31 % of control | at least 45% | 0.9 µM | 9.45 µM | 2.34 µM | 2.32 µM | 9.89 µM | 5.82 µM | 8.94 µM | 3.5 µM | 70 % of control | 147 % of control | increased | 61 % of control | 8.3 µM |  | pleurisy edema in rats [9]: reduced significantly; activity in chronic arthritis screen ([10]; 8 mg/kg/day): significantly active; Rat Chronic Arthritis [10]: 53 % of control
3 | COC(=O)[BH2-][NH+](C)C [Compound 15] | 12 % of control | 80% | 1.04 µM | 6.71 µM | 2.78 µM | 2.14 µM | 6.57 µM | 6.1 µM | 9.74 µM | 2.81 µM | 59 % of control | 147 % of control | increased | 86 % of control | 7.41 µM | 4.24 µM | anti-inflammatory activity in mouse edema screen ([11]; 8 mg/kg x 2): less active; reduction in induced edema in rats ([7]; 8 mg/kg x 2): at least 40%; IC50 [13]: 2.86 µM; IC50 (5'-lipoxygenase [14]): 6.61 µM; IC50 (5'-lipoxygenase [15]): 5.37 µM
4 | CCOC(=O)[BH2-][NH+](C)C [Compound 20] |  | at least 45% | 1.12 µM | 3.94 µM | 2.02 µM | 3.28 µM | 9.18 µM | 6.62 µM | 10.3 µM |  |  |  |  | 61 % of control | 9.27 µM |  | pleurisy edema in rats [9]: reduced significantly; reduction of pannus ([10]; 8 mg/kg/day): greater than 75%; Rat Chronic Arthritis [10]: 13 % of control
5 | C[NH+](C)[BH2-]C#N [Compound 33] | 15 % of control | 80% | 1.13 µM | 5.54 µM | 2.44 µM | 2.53 µM | 7.54 µM | 6.24 µM | 9.04 µM | 5.92 µM | 61 % of control |  |  |  | 9.02 µM |  | IC50 (5'-lipoxygenase [14]): 9.89 µM; IC50 (5'-lipoxygenase [15]): 3.47 µM
6 | CCCCCCCCCCCCCCCC[N+](C)(C)[BH2-]C#N [Compound 35] | 16 % of control | 80% | 0.33 µM | 4.97 µM | 2.69 µM | 2.75 µM | 7.28 µM | 6.31 µM | 9.19 µM |  |  |  |  |  | 7.16 µM |  | 
7 | C[N+](C)(C)[BH2-]C(C#N)c1ccccc1 (stereo not shown) [Compound 46] | 46 % of control | at least 45% | 7.72 µM | 2.57 µM | 2.4 µM | 5.21 µM |  |  |  | 6.59 µM |  | 191 % of control | increased |  | 3.4 µM | 2.33 µM | IC50 [13]: 0.71 µM
8 | CC[N+]#C[BH2-][N+](C)(C)C.F[B-](F)(F)F [Compound 74] | 40 % of control | at least 45% | 1.31 µM | 9.13 µM | 1.83 µM | 2.32 µM | 10.5 µM | 6.55 µM | 10 µM | 1.52 µM | 81 % of control |  |  |  | 6.03 µM |  | reduction of induced edema [11]: at least 40%
9 | C[N+](C)(C)[BH2-]C(=O)NO.Cl [Compound 77] | 41 % of control | at least 45% | 6.59 µM | 5.13 µM | 2.14 µM | 1.49 µM |  |  |  | 7.72 µM |  | 139 % of control |  |  | 1.4 µM | 1.09 µM | 
10 | O=C(O)[BH2-][NH+]1CCOCC1 [Compound 83] |  |  | 0.16 µM | 1.76 µM | 2.37 µM | 0.96 µM | 9.89 µM | 5.41 µM | 8.09 µM |  |  |  |  |  | 7.59 µM |  | reduction of induced edema [11]: at least 30%
